Measurements taken from patent US6696578B2, “Difuropyrone derivatives” (Mount Sinai Hospital, priority 1999, dated 2004).

Assays:
[1] = Storage of CM-1 calibrator at room temperature or in freezer, UV absorbance; type: physicochemical; conditions: calibrator in 50% methanol, eight months; for UV absorbance at 306 nm after storage: reference calibrator 0.69 AU
Procedure: The UV absorbance of CM-1 calibrator (30 ug/ml of 50% methanol) was measured. An aliquot of CM-1 calibrator was kept on the bench top for […], and another aliquot was kept in a storage box in a −70° C. freezer for an equal length of time. The UV absorbance of CM-1 calibrator aliquot was measured after eight months of respective storage procedure.

[2] = Rehydrolysis of purified CM-1 calibrator with 6N HCl for different time points; type: physicochemical; conditions: 110° C.
Procedure: 100 μl of CM-1 calibrator was lyophilized, resuspended in 3.0 ml of 50% methanol and UV absorbance was measured. Five aliquots of 500 μl each were rehydrolyzed with 1000 μl 6N HCl at 110° C. for 3, 6, 12, 24 and 48 hrs. The rehydrolyzed CM-1 was lyophilized and resuspended in 500 μl of 50% methanol and UV absorbance was measured. Methanol was then evaporated and the samples were resuspended in 500 μl of the mobile phase and injected into the HPLC analytical column. The results of rehydrolysis of CM-1 were compared to the unhydrolyzed CM-1 calibrator.

[3] = Solubility of CM-1 in various solvents; type: physicochemical
[4] = Rehydrolysis of purified CM-1 with 6N HCl, UV absorption; type: physicochemical; conditions: purified CM-1, 6N HCl, 110° C., 48 hrs
Procedure: An aliquot of purified CM-1 was lyophilized. The lyophilized CM-1 was resuspended in 7 ml of 50% HPLC grade methanol. The UV absorption of CM-1 was measured at 306 nm using a Shimatzu Spectrophotometer. The methanol was evaporated and CM-1 was rehydrolysed for 48 hrs in 6N HCl at 110° C. CM-1 was then lyophilized and resuspended in 7 ml of 50% HPLC grade methanol. The UV absorption of CM-1 was measured.

[5] = test system: SM and MD cartilage cultures (calf metaphalangeal joint chondrocytes); assay: Bovine cartilage cultures treated with interleukin-1β; type: cell-based; conditions: 10 ng/ml for 7 days prior to harvesting
Procedure: Articular cartilage was excised separately from the superficial-middle (SM) or middle-deep (MD) layers of calf metaphalangeal joint using a sterile technique as described by Boyle et al. The cartilage slices were placed in a petri dish containing Ham's F12 and 1% antibiotics in HAT. Chondrocytes were isolated from the SM and MD extracellular matrix by sequential enzymatic digestion using proteinase (0.5%, 1 hour, 37° C.), washed three times with Ham's F12 medium and finally digested with collagenase A (0.1%, overnight, 37° C.). Teflon filter inserts (Millicell CMR, Millipore Corp., Bedford, Mass., USA) were placed into the wells of the 24 well culture dish, coated with type II collagen (0.5 mg/ml of 0.1N acetic acid), dried overnight and UV sterilized for 30 mins. The filter inserts were washed thoroughly with Ham's F12 before plating the cells. The isolated SM and MD chondrocytes were washed extensively and resuspended in Ham's F12 with 5% fetal bovine serum (FBS) and plated on the teflon inserts at a density of 3.0×10^6/cm^2. The cells were supplemented with the medium containing 20% FBS and 100 μg/ml ascorbic acid (added fresh at all times) from day 7 onwards every alternate working day. Some cartilage filter cultures were treated with 10 ng/ml interleukin-1β (Il-1β, human recombinant, Sigma) for 7 days (three changes of the Ham's F12 with 20% FBS and Il-1β) prior to harvesting. The chondrocytes were grown at 37° C., 100% humidity and 5% CO2. The chondrocyte cultures were harvested at fixed time points i.e. day 21, 35, and 56 and stored at −20° C. till the analysis day.
The untreated (controls) and Il-1β-treated SM and MD cartilage cultures were analyzed for cartilage thickness and collagen, proteoglycan, pyridinoline, deoxypyridinoline, and CM-1 content as described herein.

decrease of UV absorbance at 306 nm after storage ([1]; room temperature) [%]	UV absorbance at 306 nm after storage ([1]; room temperature) [AU]	UV absorbance at 306 nm after storage ([1]; −70° C. freezer) [AU]	CM-1 yield after rehydrolysis (unhydrolyzed calibrator = 100%) ([2]; 3 hrs (maintained up to 12 hrs)) [%]	CM-1 yield after rehydrolysis (unhydrolyzed calibrator = 100%) ([2]; 24 hrs) [%]	CM-1 yield after rehydrolysis (unhydrolyzed calibrator = 100%) ([2]; 48 hrs) [%]	stability when rehydrolyzed with 6N HCl ([2]; prolonged period)	solubility ([3]; chloroform)	solubility ([3]; hexane)	solubility ([3]; methanol)	solubility ([3]; water)	decrease of UV absorption at 276 nm after rehydrolysis [4] [%]	decrease of UV absorption at 306 nm after rehydrolysis [4] [%]	UV absorption at 276 nm after rehydrolysis ([4]; before treatment 1.00 (278 nm)) [AU]	UV absorption at 306 nm after rehydrolysis ([4]; before treatment 1.884) [AU]	Substance	glycosaminoglycan (GAG) content ([5]; SM and DM groups)	collagen content ([5]; SM and DM groups, in particular day 56)	cartilage thickness versus untreated controls ([5]; SM and MD groups)	Pyd and Dpyd content ([5]; day 35 and more so day 56)
75	0.1718	0.73	64	19	4.5	not stable	insoluble	insoluble	highly soluble	highly soluble	51	75	0.4865	0.469	2,6-dimethyl-difuro-8-pyrone [CM-1]				
															Il-1β: interleukin-1β, human recombinant, Sigma; used to treat cartilage filter cultures	decreased	decreased	thinner	decrease
